Data from patent US20110038856A1, “METHODS OF TREATING NEOPLASTIC, AUTOIMMUNE AND INFLAMMATORY DISEASES” (Seattle Genetics, Inc., priority 2006, published 2011).

Assays:
HEL 92.1.7 cells = assay: Complement-dependent cytotoxicity (CDC) on MDR+ CD33-positive AML cell line; format: cell-based, human; details: HEL 92.1.7 cells preincubated with drug for two hours prior to anti-CD33 Ab; FIG. 4
Protocol: The purpose of this study was to determine whether the cytotoxic effects of an anti-CD33 antibody (HuM195) on AML cells could be enhanced by combination treatment with chemotherapeutic drugs. An MDR^+, CD33-positive AML cell line (HEL 92.1.7) was either untreated or preincubated with the indicated concentrations of thalidomide or 5-azacytidine for two hours prior to exposure to the anti-CD33 Ab. Cytotoxic activity was measured using a complement-dependent cytotoxicity (CDC) activity.

HL-60 cells = assay: Mouse AML model, HL-60 cells injected intravenously; format: in vivo, mice
Protocol: Mice were implanted with an AML cell line, HL-60, as follows: 5 million HL-60 cells were injected intravenously. The mice were treated with lintuzumab (10 mg/kg, q4d×4, ip), cytarabine (1 mg/kg, 5 mg/kg or 25 mg/kg, q1d×10, or 50 mg/kg or 100 mg/kg, q2d×5, ip) or lintuzumab with cytarabine (dosed as described previously). Treatment began on day one.
To confirm the data of the in vitro study, mice were implanted with an AML cell line, HL-60, as follows: 5 million HL-60 cells were injected intravenously. […] Treatment began on day one.

target cells = assay: ADCC activity, standard 51Cr release assay with NK cells; format: cell-based; details: NK cells pre-treated for 2 to 3 h with drug prior to addition to target cells; FIG. 23
Protocol: Viable NK cells were pre-treated for 2 to 3 h with lenalidomide or thalidomide (as described in FIG. 23) prior to addition to target cells.

CD33 [1] = biological target: T1, CD33 (Homo sapiens, UniProt P20138); assay: Binding of deglycosylated SGN-33 to CD33 by ELISA; details: data not shown
T1 sequence (P20138 18-364): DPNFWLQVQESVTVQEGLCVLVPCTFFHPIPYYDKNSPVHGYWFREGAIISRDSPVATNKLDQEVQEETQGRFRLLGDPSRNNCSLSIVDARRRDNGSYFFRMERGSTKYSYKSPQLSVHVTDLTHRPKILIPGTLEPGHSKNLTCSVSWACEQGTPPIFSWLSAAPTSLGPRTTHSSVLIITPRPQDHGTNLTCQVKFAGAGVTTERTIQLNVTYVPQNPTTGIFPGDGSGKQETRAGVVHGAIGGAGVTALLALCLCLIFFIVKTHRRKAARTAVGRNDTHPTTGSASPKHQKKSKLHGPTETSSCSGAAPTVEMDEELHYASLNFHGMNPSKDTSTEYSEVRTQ

[2] = Effector function (ADCC or CDC activity) of deglycosylated antibody; format: cell-based; details: data not shown; unlike the intact antibody
[3] = tested on: primary human macrophages; assay: Macrophage migration in response to chemoattractants (CytoSelect Cell Migration Assay); format: cell-based; details: 10% human serum or 20% conditioned media from RPMI 8226 cells; p<0.05; FIG. 21
Protocol: (§1) The migration of macrophages in response to challenge with plating media containing 10% human serum, 20% conditioned tumor cell media, or 50 ng/ml TGF-β, VEGF, TNF-α, or IFN-γ was evaluated using the CytoSelect Cell Migration Assay (Cell Biolabs, San Diego, Calif.). […] The study was stopped 18 hours later and migration was evaluated after dissociation of the cells from the membrane followed by detection with Cyquant GR dye.
as §1, with “serum or” for “serum,”, “media” for “media, or 50 ng/ml TGF-β, VEGF, TNF-α, or IFN-γ”, “studies were” for “study was”, “h” for “hours”

CD33 [4] = biological target: T1, CD33; assay: SGN-33 signaling in HL-60 cells, primary human monocytes and macrophages (CD33 immunoprecipitation, Western blot); format: cell-based; design: endogenous in cells; host or cells: HL-60 (ATCC); primary human CD14+ monocytes (Cambrex); macrophages derived from human PBMCs; details: HL-60 and monocytes; 30 minutes; FIG. 16
Protocol: Deglycosylation was confirmed by CE-SDS. […] Cell lysates were prepared and CD33 immunoprecipitated using an anti-CD33 rabbit polyclonal antibody (Santa Cruz Biotechnology, Santa Cruz, Calif.) prior to SDS PAGE gel electrophoresis. Western blot analyses of these samples were performed using the 4G10 phosphotyrosine antibody (Upstate Biotechnology, Temucula, Calif.), anti-CD33 antibody (NovoCastra, Norwell, Mass.), and anti-SHP-1 antibody (Calbiochem, San Diego, Calif.). Control lysate for SHP-1 was prepared from a B cell lymphoma cell line.

Q: For `Nc1ncn([C@@H]2O[C@H](CO)[C@@H](O)[C@H]2O)c(=O)n1` [5-azacytidine], which “sensitivity of MDR+ AML cells to HuM195-mediated CDC activity” value (HEL 92.1.7 cells) is on record?
A: enhanced the sensitivity

Q: For `Nc1ccn([C@@H]2O[C@H](CO)[C@@H](O)[C@@H]2O)c(=O)n1` [cytarabine, reference compound], which “percent survival rates compared to untreated controls” value (HL-60 cells; low doses of cytarabine alone, ip, FIG. 22) is on record?
A: increasing percent survival rates

Q: Which results are given for `Nc1cccc2c1CN(C1CCC(=O)NC1=O)C2=O` (stereo not shown) [lenalidomide, reference compound]?
A: day by which mice were removed from study due to tumor progression (HL-60 cells; lenalidomide 25 mg/kg, qd×3, ip alone, control mice about day 60, FIG. 24): ~90 days; SGN-33 mediated ADCC (target cells): enhance SGN-33 mediated ADCC

Q: For `O=C1CCC(N2C(=O)c3ccccc3C2=O)C(=O)N1` (stereo not shown) [thalidomide], which “SGN-33 mediated ADCC” value (target cells) is on record?
A: enhance SGN-33 mediated ADCC

Q: And the “sensitivity of MDR+ AML cells to HuM195-mediated CDC activity” value (HEL 92.1.7 cells)?
A: enhanced the sensitivity

Q: Which results are given for “deglycosylated SGN-33: SGN-33 treated with PN-glycosidase F; does not interact with Fc receptors”?
A: binding to CD33 (CD33 [1]): confirmed; effector function, including ADCC or CDC activity [2]: did not mediate effector function; macrophage migration [3]: significantly reduced; recruitment of SHP-1 to the CD33 complex (CD33 [4]): resulted in recruitment of SHP-1
